{"source": "patent US11479770B2", "about": "“Use of p38 inhibitors to reduce expression of DUX4” (Fulcrum Therapeutics, Inc., priority 2017, dated 2022)", "assay_type_in_all_cases": "cell-based, human", "key": {"[1]": {"tested_on": "MBD3L2 mRNA (DUX4 downstream gene)", "assay": "MBD3L2 mRNA expression (qPCR) in FSHD myotubes", "description": "(§1) On day 0, the media was changed to differentiation media. Plates were removed from the incubator and the growth medium was aspirated, plates were washed once with PBS, 100 μL, for 96-wells and 1 mL for a 6-well plate, 100 μL, or 2 mL of differentiation medium was added per well, 96- or 6-well respectively. Antisense oligonucleotides or drug were added at the desired concentration, and the plates were put back in the incubator and incubated for 3-4 days.\n(§2) Cells were removed from the incubator and media aspirated. Cells were quickly lysed following one of the following protocols: for lysis in 96-well plates, direct lysis and one-step RT-Preamp qPCR was performed according to the protocol described below. For each 96-well, a mix containing: 19.5 μL Roche Realtime Ready lysis buffer, 0.25 μL RNAse inhibitor, 0.25 μL DNAseI (from Thermo not the included one in the kit) was prepared. 20 μL of the mix was added to each well, mixed 5 times, and incubated 5 minutes at RT or alternatively shaken vigorously for 15 minutes. Lysis was observed under the microscope. Samples were frozen −80° C. at least for 15 minutes.\n1-step RT-Preamplification was used for detection of DUX4 downstream genes, i.e., MBD3L2, ZSCAN4, LEUTX, TRIM43, KHDC1L, and POL2RA-VIC was used as endogenous control. Per 10 μL reaction, the reaction mix included: 2.25 μL of RNA (1:10 dilution lysate), 5 μL of Taqman Pre-Amp Master Mix (2×), 0.25 μL of RT enzyme mix (40×), 2.5 μL of Taqman probe set (0.2×)*. * For pooling the TaqMan Assays, equal volumes of each 20× TaqMan® Gene Expression Assay were used, and up to 100 assays were combined. For example, to pool 50 TaqMan assays, 10 μL of each assay were combined in a microcentrifuge tube. The pooled TaqMan assays were diluted using 1× TE buffer so that each assay was at a final concentration of 0.2×. For the above example, 500 μL of 1× TE buffer was added to the pooled TaqMan assays for a total final volume of 1 mL. The QuantStudio7 protocol was used at 48° C. 15 min, 95° C. 10 min, 10 cycles: 95° C. 15 sec, 60° C. 4 min, and 4° C. infinite Samples were then diluted to 50 μL and continued with the qPCR step. Per 10 μL reaction, the reaction mix included: 2 μL of Preamp dilution, 5 μL of Fast Advanced Taqman Master Mix (2×), 0.5 μL of Taqman probe set (20×), and 2.5 μL of H2O. When multiplexing, the volume was adjusted to 10 μL total. The following program was run on the QuantStudio7: 50° C. for 2 min, 95° C. for 30 sec, 40×, 95° C. for 5 sec, 60° C. for 30 sec, and plates were read as per the manufacturers specifications (Thermo).\n(§3) Wild type myotubes and mature patient-derived FSHD myotubes that express DUX4 protein were treated with DMSO vehicle control or multiple concentrations of various p38α/β inhibitors with different ranges of isoform and kinome selectivity, including SB239063 (FIG. 4A), VX-702 (FIG. 4B), Pamapimod (FIG. 4C), and TAK-715 (FIG. 4D). After treatment, the control and treated cells were processed for realtime PCR quantification of MBD3L2 mRNA (DUX4 downstream gene) and myogenin (MYOG) mRNA (control) expression."}, "myogenin (MYOG) mRNA": {"tested_on": "myogenin (MYOG) mRNA", "assay": "MYOG mRNA expression (qPCR) in FSHD myotubes", "conditions": "multiple concentrations", "description": "as §1, §2\nFor qPCR, cell lysate was diluted 1:10, and 2 μL was used for a 10 μL 1-step RT-qPCR reaction for detection of GAPDH, RPLPO, TBP, MYOG, FRG1, MYH3, ACTN2, etc. Per 10 μL reaction, the reaction mix included: 2 μL of RNA (1:10 dilution lysate), 5 μL of Fast Advanced Taqman Master Mix (2×), 0.25 μL of RT enzyme mix (40×), 0.5 μL of Taqman probe set (20×), and 2.25 μL of H2O. The following reaction protocol was run on the QuantStudio 7: 48° C. for 15 min, 50° C. for 2 min, 95° C. for 30 sec, 40×, 95° C. for 5 sec, 60° C. for 30 sec, after which the plates were read as specified by the manufacturer (Thermo).\nas §3"}, "active Caspase-3": {"tested_on": "active Caspase-3", "assay": "Apoptosis by active Caspase-3 in FSHD myotubes", "conditions": "1 μM; to level similar to healthy control line", "description": "Briefly, cells were fixed in 4% paraformaldehyde and permeabilized in […] for 10 min at room temperature. Cells were permeabilized with PBST (1× PBS solution with 0.1% Triton X-100) before blocking with 10% Normal Donkey Serum or 3% BSA (NDS) in PBST. Cells were then incubated with appropriately diluted primary antibodies in PBST with 5% NDS for 1 hours at room temperature or 12 hours at 4° C., washed with PBST for 3 times at room temperature, and then incubated with desired secondary antibodies in TBST with 5% NDS and DAPI to counterstain the nuclei. DUX4 was detected by immunocytochemistry using the E5-5 antibody in differentiated FSHD myotubes. Activated Caspase-3 was detected using a commercially available antibody (https://www.cellsignal.com/products/primary-antibodies/cleaved-caspase-3-asp175-antibody/9661).\nApoptosis was measured by active Caspase-3 levels in FSHD myotubes in vitro as described in Materials and Methods. Apoptosis was detected in a sporadic manner in a subset of myotubes in culture as shown by the white circles and magnified region in FIG. 9A. Active Caspase-3 signal was quantified in FSHD myotubes that had been treated with FTX-1821 at different concentrations (FIG. 9B). […] No change in active Caspase-3 signal was observed following DMSO treatment. […]"}, "DUX4-fl mRNA": {"tested_on": "DUX4-fl mRNA", "assay": "DUX4 / DUX4-fl mRNA expression in FSHD myotubes", "description": "cDNA preparation. 10 μL reactions included 1 μL of RNA (1 μg), 0.5 μL of Oligo dT, 0.5 μL of 10 mM dNTPs, and 4.5 μL of H2O. Reaction samples were incubated at 65° C. for 2 min and quickly moved to ice and held at least 1 min before adding the enzyme mix, which included 2 μL of 5× First strand Buffer, 0.5 μL of 0.1M DTT, 0.5 μL of RNAse inhibitor, 0.5 μL of SSIV RT. The samples were incubated at 55° C. for 20 min and 80° C. for 10 min, followed by cool down to 4° C. […]\nDUX4 qPCR with nested primers was performed in a 10 μL reaction containing 1 μL of DUX4 pre amplification DNA, 5 μL of 2× IQ SYBR Mix, 0.4 μL of 10 μM TJ38F, 0.4 μL of 10 μM TJ41R, and 3.2 μL H2O. […] 10 seconds, then the plates were read on QuantStudio7 as per manufactures instruction (Thermo). […]\nWild type myotubes were treated with DMSO control vehicle, and mature patient-derived FSHD myotubes that express DUX4 protein were treated with DMSO vehicle control or 1 μM of a DUX4 sequence-directed antisense oligonucleotide (ASO; FTX-2) purchased from Exiqon. After treatment, the myotubes were lysed in 19.5 μL of Roche Real Time Ready Lysis Buffer, 0.25 μL of DNAse1 (Ambion, AM2222), 0.25 μL of Protector RNase Inhibitor (Roche, 3335402001), and the RNA was collected in an RNeasy Micro Kit Master Mix. […]"}, "[2]": {"tested_on": "ZSCAN4, TRIM43, MBD3L2, LEUTX, and KHDC1L", "assay": "DUX4-regulated downstream gene expression (real time PCR) in FSHD myotubes", "conditions": "1 μM ASO", "description": "Wild type myotubes were treated with DMSO control vehicle, and mature patient-derived FSHD myotubes that express DUX4 protein were treated with DMSO vehicle control or 1 μM of a DUX4 sequence-directed antisense oligonucleotide (ASO; FTX-2) purchased from Exiqon. After treatment, the myotubes were lysed in 19.5 μL of Roche Real Time Ready Lysis Buffer, 0.25 μL of DNAse1 (Ambion, AM2222), 0.25 μL of Protector RNase Inhibitor (Roche, 3335402001), and the RNA was collected in an RNeasy Micro Kit Master Mix. Expression levels of DUX4-regulated downstream genes (ZSCAN4, TRIM43, MBD3L2, LEUTX, and KHDC1L) was determined by real time PCR (ThermoFisher Scientific, 4484262), ZSCAN4 Taqman Assay (ThermoFisher Scientific, Hs00537549_m1, FAM-MGB), MYOG Taqman Assay (ThermoFisher Scientific, Hs01072232_m1, JUN-QSY), RPLPO Taqman Assay (ThermoFisher Scientific, Hs99999902_m1), and/or LEUTX Taqman Assay (ThermoFisher Scientific, Hs00418470_m1). Ct values were extracted from QuantStudio Realtime PCR software, and Genedata was used to calculate relative levels of expression using POLR2A as a housekeeping gene."}}}
{"compound": "Cn1c(=O)c(Oc2ccc(F)cc2F)cc2cnc(NC(CCO)CCO)nc21", "note": "[FTX-839, Pamapimod]", "values": [{"measurement": "MBD3L2 mRNA in FSHD1 and FSHD2 primary patient myoblast lines", "setting": "[1]; 1 μM, to levels similar to healthy control lines", "result": "reduction"}, {"measurement": "MBD3L2 mRNA levels normalized to POLR2A mRNA", "setting": "[1]; FSHD myotubes, 10, 100, and 1000 nM vs DMSO", "result": "dose-dependently reduced"}, {"measurement": "MBD3L2 expression levels in four FSHD patient lines", "setting": "[1]; FTCE-016, -020, -197, -196 myotubes, 1 μM, to levels similar to healthy controls", "result": "reduced"}, {"measurement": "impact to MYOG mRNA expression", "setting": "myogenin (MYOG) mRNA", "result": "no impact"}, {"measurement": "apoptosis (active caspase-3) across FSHD1 and FSHD2 lines", "setting": "active Caspase-3", "result": "reduction"}]}
{"compound": "COc1nccc(-c2c(-c3ccc(F)cc3)ncn2C2CCC(O)CC2)n1", "note": "(stereo not drawn) [SB239063]", "values": [{"measurement": "impact to MYOG mRNA expression", "setting": "myogenin (MYOG) mRNA", "result": "no impact"}]}
{"compound": "CCc1nc(-c2cccc(C)c2)c(-c2ccnc(NC(=O)c3ccccc3)c2)s1", "note": "[TAK-715]", "values": [{"measurement": "impact to MYOG mRNA expression", "setting": "myogenin (MYOG) mRNA", "result": "no impact"}]}
{"compound": "NC(=O)c1ccc(N(C(N)=O)c2c(F)cccc2F)nc1-c1ccc(F)cc1F", "note": "[VX-702]", "values": [{"measurement": "impact to MYOG mRNA expression", "setting": "myogenin (MYOG) mRNA", "result": "no impact"}]}
{"compound": "FTX-2: DUX4 sequence-directed antisense oligonucleotide purchased from Exiqon, CAGCGTCGGAAGGTGG (SEQ ID NO:18) (listed as DNA, chemistry not given here)", "values": [{"measurement": "MBD3L2 expression, different dilutions", "setting": "[1]; FSHD myotubes, different dilutions of the ASO", "result": "dose dependent reduction"}, {"measurement": "DUX4 expression vs DMSO vehicle control", "setting": "DUX4-fl mRNA; 1 μM ASO", "result": "reduced"}, {"measurement": "DUX4 expression, different dilutions", "setting": "DUX4-fl mRNA; different dilutions of the ASO", "result": "dose dependent reduction"}, {"measurement": "expression of DUX4 downstream target genes ZSCAN4, TRIM43, MBD3L2, LEUTX, and KHDC1L vs DMSO", "setting": "[2]", "result": "reduced"}]}
